Assay [1] deals with DLBCL cell lines (SU-DHL-6, SU-DHL-2). As to the kind of experiment: gene expression profiling (Illumina HumanHT-12 Expression BeadChips). It counts as cell-based. The method, then: Baseline gene expression profiles (GEP) were obtained in 38 lymphoma cell lines, including 22 DLBCL with Illumina HumanHT-12 v4 Expression BeadChip. GEP before and after OTX015 treatment were done in […] DLBCL cell lines, too. The relationship between GEP and IC50 values was assessed by Pearson correlation. LIMMA was used for differential expression analysis, followed by Benjamini-Hochberg multiple test correction, and GSEA to test for enrichment of functionally-related genes.
Cell lines: 22 diffuse large B-cell lymphoma (DLBCL), 4 mantle cell lymphomas, 3 multiple myelomas, 3 splenic marginal zone lymphoma and 1 prolymphocytic leukemia. Anti-proliferative of OTX015 (OncoEthix SA, Switzerland) was assessed by MTT and its cytotoxic activity by Annexin V staining and gene expression profiling (GEP) with Illumina HumanHT-12 Expression BeadChips. Data mining was done with LIMMA, GSEA, Metacore.
We performed GEP on 2 cell lines (SU-DHL-6, SU-DHL-2), treated with DMSO or OTX015 (500 nM) for 1, 2, 4, 8 or 12 hours.

Assay [2] deals with NFKB target genes (IRF4, TNFAIP3 and BIRC3). As to the kind of experiment: PCR of NFKB target genes. In kind it is cell-based.
Assay [3] relates to pSTAT3 and p50 (NFKB 1) in ABC cell lines. As to the kind of experiment: immunoblotting and immunohistochemistry. In kind it is cell-based.
The test system of assay [4] is IL10 and IL4 production. As to the kind of experiment: IL10 and IL4 production. It counts as cell-based. To be noted: after 24 hours treatment.
Assay [5] concerns the target mTORC1 (Homo sapiens, UniProt P42345). Conditions: cited from earlier work.
For assay [6], the target named is mTORC2 (Homo sapiens, UniProt P42345). Conditions: cited from earlier work.
Assay [7] relates to pAktS473, pGSK3βS9, pS6, pMAPK, pAktT308. To be noted: cited from earlier work.
Assay [8] concerns the target Bruton's tyrosine kinase (BTK) (Homo sapiens, UniProt Q06187). Conditions: in intact cells and in cell-free systems; cited from earlier work.
Assay [9] has as its target BTK and PKCβII (Homo sapiens, UniProt Q06187). Conditions: in intact cells and in cell-free systems; cited from earlier work.
Assay [10] has as its system PKC. To be noted: cited from earlier work.
The subject of assay [11] is Lyn, Syk, PKA, casein kinase I, ERK1, ERK2 and p38 kinase. To be noted: cited from earlier work.
[12] abbreviates: SU-DHL-6, SU-DHL-2, 500 nM for 1, 2, 4, 8 or 12 hours.

SMILES strings stand for the structures.

The term IC50 denotes the concentration that inhibits the measured activity by half.

Bruton's tyrosine kinase (BTK), sequence (Q06187 whole entry, species assumed): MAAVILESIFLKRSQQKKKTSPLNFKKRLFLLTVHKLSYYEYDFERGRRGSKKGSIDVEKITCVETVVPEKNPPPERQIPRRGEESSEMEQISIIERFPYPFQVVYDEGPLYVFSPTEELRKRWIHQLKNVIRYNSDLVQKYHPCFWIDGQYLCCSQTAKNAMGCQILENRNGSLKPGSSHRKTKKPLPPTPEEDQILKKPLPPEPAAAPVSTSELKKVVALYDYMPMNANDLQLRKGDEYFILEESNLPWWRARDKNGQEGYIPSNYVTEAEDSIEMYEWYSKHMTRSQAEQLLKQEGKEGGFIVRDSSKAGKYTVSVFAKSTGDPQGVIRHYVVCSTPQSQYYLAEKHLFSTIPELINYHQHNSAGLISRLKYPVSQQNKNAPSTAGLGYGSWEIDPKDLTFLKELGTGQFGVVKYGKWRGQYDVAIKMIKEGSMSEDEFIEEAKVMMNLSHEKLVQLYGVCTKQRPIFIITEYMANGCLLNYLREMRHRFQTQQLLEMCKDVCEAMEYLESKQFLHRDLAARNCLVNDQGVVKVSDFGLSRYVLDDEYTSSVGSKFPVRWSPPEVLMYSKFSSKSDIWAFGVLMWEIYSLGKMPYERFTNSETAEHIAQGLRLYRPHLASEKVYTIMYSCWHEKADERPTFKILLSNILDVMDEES
BTK and PKCβII, sequence (Q06187 whole entry, species assumed): as above

As to `Cc1sc2c(c1C)C(c1ccc(Cl)cc1)=N[C@@H](CC(=O)Nc1ccc(O)cc1)c1nnc(C)n1-2` [Compound (1-1), 2-[(6S)-4-(4-chlorophenyl)-2,3,9-trimethyl-6H-thienol[3,2-f]-[1,2,4]triazolo[4,3-a][1,4]diazepin-6-yl]-N-(4-hydroxyphenyl)acetamide dihydrate], in [1] (Example 7), the “MYD88/JAK/STAT pathway expression (additional GEP)” value is given as “down-regulation of the MYD88/JAK/STAT pathway”. In addition, in assay [1] (setting [12]), the “genes downregulated (GEP), members of the NFKB, TLR and JAK/STAT pathways” value was “downregulated MYD88, IRAK1, TLR6, IL6, STAT3, and TNFRSF17”; the “most frequently downregulated gene (GEP)” value is “MYC was the most frequently downregulated gene”; the “most upregulated genes (GEP)” value is given as “Most upregulated genes were histones”. The “NFKB target gene expression (PCR)” value in [2] is “NFKB target genes (IRF4, TNFAIP3 and BIRC3) were also downregulated”. For the same compound, in assay [3], the “nuclear localization of p50 (NFKB 1)” value is “reduction in nuclear localization of p50 (NFKB 1)”. Also, the “transcriptionally active pSTAT3” value in assay [3] (2 ABC cell lines) is given as “reduction of transcriptionally active pSTAT3”. Moreover, the “IL10 and IL4 production” value in [4] was “IL10 and IL4 production was reduced”.

Regarding `COc1cccc2cc(-c3nc([C@H]4CC[C@H](C(=O)O)CC4)n4ncnc(N)c34)[nH]c12` [OSI-027], the 50% inhibitory concentration (IC50) in assay [5] was 22 nM.

Turning to `COc1ccc(COc2cc3oc(=O)c4cc(C(C)O)ccc4c3cc2OC)cc1` (stereo not shown) [Palomid 529], in assay [5], the “mTORC1 complex inhibition” value was “inhibits both the mTORC1 and mTORC2 complexes”. The “mTORC2 complex inhibition” value in assay [6] was “inhibits both the mTORC1 and mTORC2 complexes”. In addition, in [7], the “effect on phosphorylation markers” value is “reduces phosphorylation of pAktS473, pGSK3βS9, and pS6 but neither pMAPK nor pAktT308”.

Regarding `CC1=C(O)C(=O)[C@@H]2O[C@@H]2C1=O` [Terreic acid, (1R,6S)-3-Hydroxy-4-methyl-7-oxabicyclo[4.1.0]hept-3-ene-2,5-dione], in [8], the “catalytic activity of BTK” value is recorded as “Inhibits the catalytic activity of BTK”. In addition, in assay [9], the “interaction between BTK and PKCβII” value was “Inhibits the catalytic activity of BTK as well as the interaction between BTK and PKCβII”. Further, the “activity of PKC” value in [10] was “without affecting the activity of PKC”. Moreover, the “effect on activities of Lyn, Syk, PKA, casein kinase I, ERK1, ERK2 and p38 kinase” value in assay [11] is “little or no effect”.

Values taken from patent US20160158246A1, “METHOD OF TREATING DIFFUSE LARGE B-CELL LYMPHOMA (DLBCL) USING A BET-BROMODOMAIN INHIBITOR” (ONCOETHIX GMBH, priority 2013, published 2016).
